Columns and labels:
Assay type in all cases: in vivo
[1] = system: barnyardgrass (Echinochloa oryzicola); test: Test Example 4: flooded paddy field treatment of barnyardgrass in pots, herbicidal activity; details: emulsifiable concentrate applied on the water surface of flooded pots, dosage of 1000 g/ha, 50 liters per are, plants 12 days after seeding, examined after 9 days in greenhouse
[2] = system: velvetleaf (Abutilon theophrasti); test: Test Example 3: soil surface treatment, velvetleaf seeded in pots, herbicidal activity; details: emulsifiable concentrate sprayed over the surface of the soil after seeding, dosage of 2000 g/ha, 1000 liters per hectare, examined after 9 days in greenhouse
[3] = system: velvetleaf (Abutilon theophrasti); test: Test Example 1: foliage treatment of velvetleaf in pots, herbicidal activity; details: emulsifiable concentrate sprayed over the foliage, dosage of 2000 g/ha, 1000 liters per hectare, plants 14 days after seeding, examined after 8 days in greenhouse

SMILES	herbicidal activity: growth of barnyardgrass [1]	herbicidal activity: germination of velvetleaf [2]	herbicidal activity: growth of velvetleaf [3]
Cn1c(C(F)(F)F)cc(=O)n(-c2coc3ccccc23)c1=O [Compound 1-1]	completely inhibited the growth	completely inhibited the germination	completely inhibited the growth
Cn1c(C(F)(F)F)cc(=O)n(-c2coc3c(Cl)cc(Cl)cc23)c1=O [Compound 1-2, 3-(5,7-Dichlorobenzo[b]furan-3-yl)-1-methyl-6-(trifluoromethyl)-1,2,3,4-tetrahydropyrimidine-2,4-dione]	completely inhibited the growth	completely inhibited the germination	completely inhibited the growth
Cn1c(C(F)(F)F)cc(=O)n(-c2csc3ccccc23)c1=O [Compound 1-3]	completely inhibited the growth	completely inhibited the germination	completely inhibited the growth
Cn1c(C(F)(F)F)cc(=O)n(-c2coc3ccc(Cl)cc23)c1=O [Compound 1-4]	completely inhibited the growth	completely inhibited the germination	completely inhibited the growth
COc1ccc2occ(-n3c(=O)cc(C(F)(F)F)n(C)c3=O)c2c1 [Compound 1-5, 3-(5-Methoxybenzo[b]furan-3-yl)-1-methyl-6-(trifluoromethyl)-1,2,3,4-tetrahydropyrimidine-2,4-dione]	completely inhibited the growth	completely inhibited the germination	completely inhibited the growth
CNc1ccc2occ(-n3c(=O)cc(C(F)(F)F)n(C)c3=O)c2c1 [Compound 1-8]	completely inhibited the growth	completely inhibited the germination	completely inhibited the growth
CN(C)c1ccc2occ(-n3c(=O)cc(C(F)(F)F)n(C)c3=O)c2c1 [Compound 1-9]	completely inhibited the growth	completely inhibited the germination	completely inhibited the growth
Cn1c(C(F)(F)F)cc(=O)n(-c2coc3ccc(NS(C)(=O)=O)cc23)c1=O [Compound 1-10]	completely inhibited the growth	completely inhibited the germination	completely inhibited the growth
CCOC(=O)C(C)Nc1ccc2occ(-n3c(=O)cc(C(F)(F)F)n(C)c3=O)c2c1 (stereo not drawn) [Compound 1-11]	completely inhibited the growth	completely inhibited the germination	completely inhibited the growth
CC(=O)Nc1ccc2occ(-n3c(=O)cc(C(F)(F)F)n(C)c3=O)c2c1 [Compound 1-24]	–	completely inhibited the germination	completely inhibited the growth
CC(=O)N(C)c1ccc2occ(-n3c(=O)cc(C(F)(F)F)n(C)c3=O)c2c1 [Compound 1-28]	–	completely inhibited the germination	completely inhibited the growth
Cn1c(C(F)(F)F)cc(=O)n(-c2coc3ccc(Br)cc23)c1=O [Compound 1-75]	completely inhibited the growth	completely inhibited the germination	completely inhibited the growth
Cn1c(C(F)(F)F)cc(=O)n(-c2coc3cc([N+](=O)[O-])c(O)cc23)c1=O [Compound 1-82]	completely inhibited the growth	completely inhibited the germination	completely inhibited the growth
COc1cc2c(-n3c(=O)cc(C(F)(F)F)n(C)c3=O)coc2cc1Cl [Compound 1-84, 3-(6-Chloro-5-methoxybenzo[b]furan-3-yl)-1-methyl-6-(trifluoromethyl)-1,2,3,4-tetrahydropyrimidine-2,4-dione]	completely inhibited the growth	completely inhibited the germination	completely inhibited the growth
COc1cc2c(-n3c(=O)cc(C(F)(F)F)n(C)c3=O)coc2cc1[N+](=O)[O-] [Compound 1-86, 3-(5-Methoxy-6-nitrobenzo[b]furan-3-yl)-1-methyl-6-(trifluoromethyl)-1,2,3,4-tetrahydropyrimidine-2,4-dione]	completely inhibited the growth	completely inhibited the germination	completely inhibited the growth
CCOC(=O)C(C)Oc1ccc2occ(-n3c(=O)cc(C(F)(F)F)n(C)c3=O)c2c1 (stereo not drawn) [Compound 1-127, Ethyl 2-({3-[3-methyl-2,6-dioxo-4-(trifluoromethyl)-1,2,3,6-tetrahydropyrimidin-1-yl]benzo[b]furan-5-yl}oxy)propanoate]	completely inhibited the growth	completely inhibited the germination	completely inhibited the growth
CCOC(=O)C(C)Oc1cc2c(-n3c(=O)cc(C(F)(F)F)n(C)c3=O)coc2cc1Cl (stereo not drawn) [Compound 1-129, Ethyl 2-({6-chloro-3-[3-methyl-2,6-dioxo-4-(trifluoromethyl)-1,2,3,6-tetrahydropyrimidin-1-yl]benzo[b]furan-5-yl}oxy)propanoate]	completely inhibited the growth	completely inhibited the germination	completely inhibited the growth
CCOC(=O)C(C)Oc1cc2c(-n3c(=O)cc(C(F)(F)F)n(C)c3=O)coc2cc1[N+](=O)[O-] (stereo not drawn) [Compound 1-131]	completely inhibited the growth	completely inhibited the germination	completely inhibited the growth
CSc1cc2c(-n3c(=O)cc(C(F)(F)F)n(C)c3=O)coc2cc1[N+](=O)[O-] [Compound 1-201, 1-Methyl-3-[5-(methylthio)-6-nitrobenzo[b]furan-3-yl]-6-(trifluoromethyl)-1,2,3,4-tetrahydropyrimidine-2,4-dione]	completely inhibited the growth	completely inhibited the germination	completely inhibited the growth
CCOC(=O)C(C)Sc1cc2c(-n3c(=O)cc(C(F)(F)F)n(C)c3=O)coc2cc1[N+](=O)[O-] (stereo not drawn) [Compound 1-246, Ethyl 2-({3-[3-methyl-2,6-dioxo-4-(trifluoromethyl)-1,2,3,6-tetrahydropyrimidin-1-yl]-6-nitrobenzo[b]furan-5-yl}thio)propanoate]	completely inhibited the growth	completely inhibited the germination	completely inhibited the growth
Cn1c(C(F)(F)F)cc(=O)n(-c2coc3cc([N+](=O)[O-])ccc23)c1=O [Compound 1-282]	completely inhibited the growth	completely inhibited the germination	completely inhibited the growth
Cn1c(C(F)(F)F)cc(=O)n(-c2coc3ccc(C(N)=O)cc23)c1=O [Compound 1-293]	completely inhibited the growth	completely inhibited the germination	completely inhibited the growth
COC(=O)c1ccc2occ(-n3c(=O)cc(C(F)(F)F)n(C)c3=O)c2c1 [Compound 1-303, Methyl 3-[3-methyl-2,6-dioxo-4-(trifluoromethyl)-1,2,3,6-tetrahydropyrimidin-1-yl]benzo[b]furan-5-carboxylate]	completely inhibited the growth	completely inhibited the germination	completely inhibited the growth
Cc1cc(Cl)c2occ(-n3c(=O)cc(C(F)(F)F)n(C)c3=O)c2c1 [Compound 1-358]	completely inhibited the growth	completely inhibited the germination	completely inhibited the growth
Cc1cc2c(-n3c(=O)cc(C(F)(F)F)n(C)c3=O)coc2cc1[N+](=O)[O-] [Compound 1-361]	completely inhibited the growth	completely inhibited the germination	completely inhibited the growth
CCOC(=O)C=Cc1cc(Cl)c2occ(-n3c(=O)cc(C(F)(F)F)n(C)c3=O)c2c1 [Compound 1-378]	completely inhibited the growth	completely inhibited the germination	completely inhibited the growth
Cn1c(C(F)(F)F)cc(=O)n(-c2csc3cc(Cl)ccc23)c1=O [Compound 1-864]	completely inhibited the growth	–	–
O=C1C2=C(CCCC2)C(=O)N1c1noc2ccccc12 [Compound 2-4]	–	–	completely inhibited the growth

Source: patent US6586368B1, “Condensed heterocylic compounds and herbicides containing them” (Sumitomo Chemical Company, Limited, priority 1998, dated 2003)
